For one compound, IC50 results are on record in ChEMBL document CHEMBL5727714, “Amino compounds for treatment of medical disorders” (2020).

The assay deals with Complement factor D (Homo sapiens, UniProt P00746). In words: Inhibition Assay: Human Factor D (purified from human serum, Complement Technology, Inc.) at 80 nM final concentration is incubated with test compound at various concentrations for 5 minutes at room temperature in 50 mM Tris, 1M NaCl, pH 7.5. A synthetic substrate Z-L-Lys-SBzl and DTNB (Ellman's reagent) are added to final concentrations of 100 Î¼M each. Absorbance at 405 nm (A405) is recorded at 30 second intervals for 30 minutes using a microplate spectrophotometer. IC50 values are calculated by nonlinear regression of complement Factor D reaction rates as a function of test compound concentration.
Sequence of Complement factor D (P00746 whole entry): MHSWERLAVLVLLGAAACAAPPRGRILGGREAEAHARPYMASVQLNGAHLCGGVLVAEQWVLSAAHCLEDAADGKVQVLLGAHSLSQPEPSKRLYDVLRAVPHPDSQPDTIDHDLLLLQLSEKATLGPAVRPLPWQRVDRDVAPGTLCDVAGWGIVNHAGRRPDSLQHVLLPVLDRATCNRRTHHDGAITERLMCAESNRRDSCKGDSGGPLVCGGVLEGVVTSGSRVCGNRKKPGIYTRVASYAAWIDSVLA

As a reminder, the IC50 is the concentration at which inhibition is half-maximal.

In the case of `CC(=O)c1cn(CC(=O)N2C[C@H](F)C[C@H]2C(=O)Nc2cccc(Cl)c2C(F)(F)F)c2ccc(Nc3cncnc3)cc12`, the IC50 is < 1000 nM.
